How the values were obtained:
[1] = test system: patients with stable schizophrenia; assay: Uncontrolled open-label trial for up to 1 year; format: in vivo, human
Source text: A total of 4.7% of patients with normal hemoglobin A1c (<6.5%) at baseline developed elevated levels (>6.5%) post-baseline.

[2] = test system: adult patients with a diagnosis of schizophrenia; assay: Study 1 (NCT01499563), four-week placebo-controlled, PANSS total score; format: in vivo, human
Source text: Study 1 (NCT01499563) was a four-week, randomized, double-blind, placebo-controlled, multi-center study in adult patients with a diagnosis of schizophrenia according to the DSM-IV-TR criteria. The primary efficacy measure was the Positive and Negative Syndrome Scale (PANSS) total score. The PANSS is a 30-item scale used to measure symptoms of schizophrenia. Each item is rated by a clinician on a seven-point scale. A score of 1 indicates the absence of symptoms, and a score of 7 indicates extremely severe symptoms. The PANSS total score may range from 30 to 210 with higher scores reflecting greater overall symptom severity.
Median age was 42 years (range 20 to 55 years). 17% were female, 19% were Caucasian, and 78% were African American.

[3] = test system: patients with schizophrenia; assay: QTcF four-arm crossover study; format: in vivo, human
Procedure: QTcF interval was evaluated in a randomized, placebo- and active-(moxifloxacin 400 mg) controlled, four-arm crossover study utilizing concentration-QTc effect modeling in 33 patients with schizophrenia.

[4] = test system: adult patients with a diagnosis of schizophrenia; assay: Study 2 (NCT02282761), four-week placebo-controlled, PANSS total score; format: in vivo, human
Source text: Study 2 (NCT02282761) was a four-week, randomized, double-blind, placebo-controlled, multi-center study in adult patients with a diagnosis of schizophrenia according to the DSM-5 criteria. The primary efficacy measure was the PANSS total score. […] Median age was 44 years (range 19 to 60 years); 23% were female, 26% were Caucasian and 66% were African American.

[5] = test system: adult patients with schizophrenia; assay: Pooled short-term (4- to 6-week) placebo-controlled schizophrenia trials, safety; format: in vivo, human; settings: for Somnolence/Sedation, adverse reaction incidence: placebo 10%, 4-methylbenzenesulfonate
Procedure: Of these patients, 811 participated in short-term (4- to 6-week), placebo-controlled trials with doses ranging from 14 to 84 mg/day.
In the 4- to 6-week trials, data were collected using the Simpson Angus Scale (SAS) for EPS (total score ranges from 0 to 40), the Barnes Akathisia Rating Scale (BARS) for akathisia (total score ranges from 0 to 14), and the Abnormal Involuntary Movement Scale (AIMS) for dyskinesia (total score ranges from 0 to 28).

CYP1A2 [6] = assay: In vitro CYP induction; format: in vitro ADME
Plasma protein binding = format: in vitro ADME; settings: at 5 μM in human plasma (about 70-fold higher than therapeutic concentrations)
[7] = molecular target: (Homo sapiens, UniProt Q8TCC7); assay: In vitro transporter inhibition; format: in vitro ADME
Sequence of (Homo sapiens, UniProt Q8TCC7) (Q8TCC7 whole entry): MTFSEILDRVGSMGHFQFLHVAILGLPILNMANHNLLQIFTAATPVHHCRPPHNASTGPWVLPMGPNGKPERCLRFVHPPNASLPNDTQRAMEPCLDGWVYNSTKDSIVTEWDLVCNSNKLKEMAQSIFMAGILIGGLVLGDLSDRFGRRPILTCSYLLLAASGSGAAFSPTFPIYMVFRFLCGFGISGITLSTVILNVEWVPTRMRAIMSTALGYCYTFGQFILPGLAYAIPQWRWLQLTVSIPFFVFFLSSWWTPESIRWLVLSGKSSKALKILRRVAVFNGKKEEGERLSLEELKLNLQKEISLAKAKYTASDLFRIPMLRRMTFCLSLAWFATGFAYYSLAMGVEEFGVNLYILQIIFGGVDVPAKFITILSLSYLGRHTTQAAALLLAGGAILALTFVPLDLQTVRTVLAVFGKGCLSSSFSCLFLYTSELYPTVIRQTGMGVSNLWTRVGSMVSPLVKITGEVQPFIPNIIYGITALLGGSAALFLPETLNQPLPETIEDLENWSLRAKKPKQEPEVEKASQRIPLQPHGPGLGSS

[8] = Pharmacokinetics in specific populations; format: in vivo, human
Source text: Use of lumateperone (e.g., lumateperone tosylate) is not recommended for patients with moderate (Child-Pugh class B) to severe hepatic impairment (Child-Pugh class C). […] No dosage adjustment is recommended for patients with mild hepatic impairment (Child-Pugh A).

histaminergic receptors = assay: Receptor binding, histaminergic; settings: at 100 nM
OATP1B1 = OATP1B1 (Homo sapiens, UniProt Q9Y6L6); assay: In vitro transporter inhibition; format: in vitro ADME
Sequence of OATP1B1 (Q9Y6L6 whole entry): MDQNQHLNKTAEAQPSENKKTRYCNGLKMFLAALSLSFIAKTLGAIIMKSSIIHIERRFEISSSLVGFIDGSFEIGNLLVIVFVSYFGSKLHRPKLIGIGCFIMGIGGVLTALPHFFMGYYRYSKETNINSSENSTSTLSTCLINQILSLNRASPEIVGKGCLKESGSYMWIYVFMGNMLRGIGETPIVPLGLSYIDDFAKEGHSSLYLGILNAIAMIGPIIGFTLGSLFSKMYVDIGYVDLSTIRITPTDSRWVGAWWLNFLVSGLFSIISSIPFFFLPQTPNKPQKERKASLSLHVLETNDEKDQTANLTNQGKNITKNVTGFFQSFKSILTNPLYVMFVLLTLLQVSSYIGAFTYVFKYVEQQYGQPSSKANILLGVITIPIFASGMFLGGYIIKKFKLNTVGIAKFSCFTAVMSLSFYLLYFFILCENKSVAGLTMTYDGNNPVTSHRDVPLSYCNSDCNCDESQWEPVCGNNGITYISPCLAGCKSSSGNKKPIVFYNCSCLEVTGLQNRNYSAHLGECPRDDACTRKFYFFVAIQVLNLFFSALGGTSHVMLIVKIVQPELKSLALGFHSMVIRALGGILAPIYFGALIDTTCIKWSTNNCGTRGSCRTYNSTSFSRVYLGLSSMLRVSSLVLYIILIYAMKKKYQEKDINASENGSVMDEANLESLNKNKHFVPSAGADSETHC

CYP2D6 = CYP2D6 (Homo sapiens, UniProt P10635); assay: In vitro CYP inhibition; format: in vitro ADME
Sequence of CYP2D6 (P10635 whole entry): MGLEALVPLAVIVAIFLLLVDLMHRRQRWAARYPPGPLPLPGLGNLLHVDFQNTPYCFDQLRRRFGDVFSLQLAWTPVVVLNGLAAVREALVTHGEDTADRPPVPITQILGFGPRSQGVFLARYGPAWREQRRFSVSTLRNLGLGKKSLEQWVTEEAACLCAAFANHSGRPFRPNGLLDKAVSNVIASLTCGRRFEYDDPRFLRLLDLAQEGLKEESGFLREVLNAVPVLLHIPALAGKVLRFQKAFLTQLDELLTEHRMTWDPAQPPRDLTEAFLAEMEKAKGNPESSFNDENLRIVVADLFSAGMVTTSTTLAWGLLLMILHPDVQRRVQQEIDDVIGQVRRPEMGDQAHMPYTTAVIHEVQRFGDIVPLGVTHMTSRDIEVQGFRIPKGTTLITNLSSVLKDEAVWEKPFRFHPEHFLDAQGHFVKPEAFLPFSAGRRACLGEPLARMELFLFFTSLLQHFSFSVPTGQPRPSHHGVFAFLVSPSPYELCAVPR

OCT2 = OCT2 (Homo sapiens, UniProt O15244); assay: In vitro transporter inhibition; format: in vitro ADME
Sequence of OCT2 (O15244 whole entry): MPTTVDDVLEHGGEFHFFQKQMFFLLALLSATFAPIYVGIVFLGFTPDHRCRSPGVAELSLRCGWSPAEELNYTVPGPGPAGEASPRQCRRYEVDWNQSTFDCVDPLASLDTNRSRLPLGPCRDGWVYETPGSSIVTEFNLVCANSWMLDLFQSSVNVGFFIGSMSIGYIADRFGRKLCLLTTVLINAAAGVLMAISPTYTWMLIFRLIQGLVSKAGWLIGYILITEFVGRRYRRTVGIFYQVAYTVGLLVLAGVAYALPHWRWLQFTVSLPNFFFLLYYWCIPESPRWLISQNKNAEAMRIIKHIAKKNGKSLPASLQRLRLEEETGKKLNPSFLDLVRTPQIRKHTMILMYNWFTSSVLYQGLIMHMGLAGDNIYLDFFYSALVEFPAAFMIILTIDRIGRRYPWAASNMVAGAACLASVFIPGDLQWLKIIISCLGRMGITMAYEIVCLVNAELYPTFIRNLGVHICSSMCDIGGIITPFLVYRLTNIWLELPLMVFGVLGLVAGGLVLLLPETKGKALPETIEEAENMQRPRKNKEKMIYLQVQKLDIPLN

P-gp = P-gp (Homo sapiens, UniProt P08183); assay: In vitro transporter substrate; format: in vitro ADME
[9] = Drug interaction: CYP3A4 substrate midazolam; format: in vivo, human; settings: single or multiple doses of lumateperone in patients with schizophrenia
OATP1B3 = OATP1B3 (Homo sapiens, UniProt Q9NPD5); assay: In vitro transporter inhibition; format: in vitro ADME
Sequence of OATP1B3 (Q9NPD5 whole entry): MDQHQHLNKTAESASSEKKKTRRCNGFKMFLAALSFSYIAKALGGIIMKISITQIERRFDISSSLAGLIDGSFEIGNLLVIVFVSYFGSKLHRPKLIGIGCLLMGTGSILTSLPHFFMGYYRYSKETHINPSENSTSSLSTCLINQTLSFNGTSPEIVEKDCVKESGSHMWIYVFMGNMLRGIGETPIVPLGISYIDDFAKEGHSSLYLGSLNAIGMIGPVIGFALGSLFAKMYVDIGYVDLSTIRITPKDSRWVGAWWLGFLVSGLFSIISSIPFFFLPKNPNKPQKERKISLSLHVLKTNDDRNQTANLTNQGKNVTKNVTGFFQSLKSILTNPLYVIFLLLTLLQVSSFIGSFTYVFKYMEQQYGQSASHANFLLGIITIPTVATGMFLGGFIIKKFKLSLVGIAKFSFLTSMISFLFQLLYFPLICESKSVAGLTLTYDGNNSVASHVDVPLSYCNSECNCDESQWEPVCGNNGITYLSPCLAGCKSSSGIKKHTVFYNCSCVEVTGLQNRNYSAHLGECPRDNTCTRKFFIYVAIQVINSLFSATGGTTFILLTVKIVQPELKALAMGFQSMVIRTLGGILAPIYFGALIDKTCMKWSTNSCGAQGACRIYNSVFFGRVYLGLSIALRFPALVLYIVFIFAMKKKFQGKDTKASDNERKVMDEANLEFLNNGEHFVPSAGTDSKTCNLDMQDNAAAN

BCRP = BCRP (Homo sapiens, UniProt Q9UNQ0); assay: In vitro transporter substrate; format: in vitro ADME
[10] = test system: UGT 1A1, 1A4, 2B15; AKR 1C1, 1B10, 1C4; CYP 3A4, 2C8, 1A2; assay: In vitro studies of enzymes involved in metabolism; format: in vitro ADME
CYP1A2 [11] = molecular target: CYP1A2 (Homo sapiens, UniProt P05177); assay: In vitro CYP inhibition; format: in vitro ADME
Sequence of CYP1A2 (Homo sapiens, UniProt P05177) (P05177 whole entry): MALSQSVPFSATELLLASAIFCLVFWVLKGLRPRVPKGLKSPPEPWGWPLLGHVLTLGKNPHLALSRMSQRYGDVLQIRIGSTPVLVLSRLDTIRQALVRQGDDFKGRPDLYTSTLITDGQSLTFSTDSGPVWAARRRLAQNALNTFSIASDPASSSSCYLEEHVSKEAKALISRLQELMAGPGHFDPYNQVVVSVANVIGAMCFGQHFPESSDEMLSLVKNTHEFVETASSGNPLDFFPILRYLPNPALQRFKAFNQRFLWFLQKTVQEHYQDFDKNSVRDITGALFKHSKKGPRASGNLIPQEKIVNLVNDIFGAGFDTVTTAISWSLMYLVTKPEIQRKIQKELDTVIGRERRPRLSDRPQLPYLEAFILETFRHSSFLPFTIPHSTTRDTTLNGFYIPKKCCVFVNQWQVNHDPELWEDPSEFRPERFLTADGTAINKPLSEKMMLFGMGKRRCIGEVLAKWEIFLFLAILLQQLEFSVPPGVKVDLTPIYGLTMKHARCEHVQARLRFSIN

CYP3A4 = assay: In vitro CYP induction; format: in vitro ADME
dopamine D2 receptors = dopamine D2 receptors (Homo sapiens, UniProt P14416); assay: Receptor binding affinity, dopamine D2
Sequence of dopamine D2 receptors (P14416 whole entry): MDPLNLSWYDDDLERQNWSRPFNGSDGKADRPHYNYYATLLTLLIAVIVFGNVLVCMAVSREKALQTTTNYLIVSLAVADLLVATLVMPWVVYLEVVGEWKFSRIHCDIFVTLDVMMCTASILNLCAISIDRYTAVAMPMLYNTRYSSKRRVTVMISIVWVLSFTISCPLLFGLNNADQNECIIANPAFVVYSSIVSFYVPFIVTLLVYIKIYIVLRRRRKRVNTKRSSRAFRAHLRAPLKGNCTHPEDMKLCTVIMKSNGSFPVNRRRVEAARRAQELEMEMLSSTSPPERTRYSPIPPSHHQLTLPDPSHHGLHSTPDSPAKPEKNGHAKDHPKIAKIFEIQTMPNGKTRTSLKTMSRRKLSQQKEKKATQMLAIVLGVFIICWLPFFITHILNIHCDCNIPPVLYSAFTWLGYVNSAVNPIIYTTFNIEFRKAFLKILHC

CYP2B6 = assay: In vitro CYP induction; format: in vitro ADME
[12] = Drug interaction: effects of other drugs on lumateperone exposure; set-up: species or system human; settings: in vivo
Source text: Such concomitant use should therefore be avoided. Moderate CYP 3A4 inhibitors include amprenavir, ciprofloxacin, cyclosporine, diltiazem, erythromycin, fluconazole, fluvoxamine, and verapamil. Strong CYP 3A4 inhibitors include clarithromycin, grapefruit juice, itraconazole, voriconazole, nefazodone, ritonavir, and nelfinavir.
Such concomitant use should therefore be avoided. CYP 3A4 inducers include carbamazepine, phenytoin, rifampin, St. John's wort, bosentan, efavirenz, etravirine, modafinil, nafcillin, aprepitant, armodafinil, pioglitazone, and prednisone.

muscarinic receptors = assay: Receptor binding, muscarinic; settings: at 100 nM
[13] = Pharmacokinetic studies (oral, intravenous, food effect)
CYP2C19 = CYP2C19 (Homo sapiens, UniProt P33261); assay: In vitro CYP inhibition; format: in vitro ADME
Sequence of CYP2C19 (P33261 whole entry): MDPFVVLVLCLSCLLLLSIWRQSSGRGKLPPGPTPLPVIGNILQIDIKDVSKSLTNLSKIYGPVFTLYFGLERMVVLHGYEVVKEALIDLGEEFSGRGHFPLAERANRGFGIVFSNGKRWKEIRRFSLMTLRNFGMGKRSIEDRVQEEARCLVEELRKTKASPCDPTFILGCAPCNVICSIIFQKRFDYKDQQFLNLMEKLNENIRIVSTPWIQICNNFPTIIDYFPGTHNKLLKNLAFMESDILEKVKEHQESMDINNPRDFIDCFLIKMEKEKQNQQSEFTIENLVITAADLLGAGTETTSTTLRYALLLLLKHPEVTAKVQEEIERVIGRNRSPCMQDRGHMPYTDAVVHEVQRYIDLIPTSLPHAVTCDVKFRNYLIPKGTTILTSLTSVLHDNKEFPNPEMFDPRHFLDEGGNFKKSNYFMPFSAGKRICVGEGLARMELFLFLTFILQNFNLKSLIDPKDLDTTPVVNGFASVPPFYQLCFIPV

OAT1 = OAT1 (Homo sapiens, UniProt Q4U2R8); assay: In vitro transporter inhibition; format: in vitro ADME
[14] = Human mass balance study, 14C-labeled oral dose; format: in vivo
CYP2C9 = CYP2C9 (Homo sapiens, UniProt P11712); assay: In vitro CYP inhibition; format: in vitro ADME
Sequence of CYP2C9 (P11712 whole entry): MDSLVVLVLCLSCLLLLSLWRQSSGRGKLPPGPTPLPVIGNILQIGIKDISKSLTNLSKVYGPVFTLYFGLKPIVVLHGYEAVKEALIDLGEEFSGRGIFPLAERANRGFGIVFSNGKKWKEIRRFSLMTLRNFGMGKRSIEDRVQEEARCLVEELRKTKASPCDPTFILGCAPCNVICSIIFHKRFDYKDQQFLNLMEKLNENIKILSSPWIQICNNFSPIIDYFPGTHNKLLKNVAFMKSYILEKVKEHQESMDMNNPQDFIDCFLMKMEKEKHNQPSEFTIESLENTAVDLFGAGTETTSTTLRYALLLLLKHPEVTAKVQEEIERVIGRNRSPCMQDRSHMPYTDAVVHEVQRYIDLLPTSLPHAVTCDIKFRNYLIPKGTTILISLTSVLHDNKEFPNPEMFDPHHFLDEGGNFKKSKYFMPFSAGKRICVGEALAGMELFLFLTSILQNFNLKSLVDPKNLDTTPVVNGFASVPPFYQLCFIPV

[15] = test system: elderly subjects with dementia; settings: cited from earlier work
[16] = 4- to 6-week trials, 60 mg tosylate daily, N = 406, placebo 1%
[17] = 4- to 6-week trials, 60 mg tosylate daily, N = 406, placebo 2%

CN1CCN2c3c(cccc31)[C@@H]1CN(CCCC(=O)c3ccc(F)cc3)CC[C@@H]12.Cc1ccc(S(=O)(=O)O)cc1 [Lumateperone tosylate, 4-((6bR,10aS)-3-methyl-2,3,6b,9,10,10a-hexahydro-1H,7H-pyrido[3′,4′: 4,5]pyrrolo[1,2,3-de]quinoxalin-8-yl)-1-(4-fluoro-phenyl)-butan-1-one 4-methylbenzenesulfonate]
mean change in body weight ([1]; Day 175, SD 5.6): approximately −2 kg
mean change in body weight ([1]; Day 350, SD 7.4): approximately −3.2 kg
patients with normal hemoglobin A1c (<6.5%) at baseline who developed elevated levels (>6.5%) post-baseline ([1]; up to 1 year): 4.7%
reduction from baseline to Day 28 in PANSS total score compared to placebo ([2]; 42 mg): statistically significant reduction
PANSS Total, Placebo-subtracted Difference (95% CI) ([2]; 42 mg, Day 28, CI −10.5, −1.1): −5.8
PANSS Total, LS Mean Change from Baseline (SE) ([2]; 42 mg, Day 28, N 84, placebo −7.4 (1.7)): −13.2 (1.7)
treatment effect on PANSS total score vs. placebo ([2]; 84 mg (two times the recommended daily dose)): not statistically significant
placebo-corrected change from baseline QTcF (90% two-sided upper confidence interval) ([3]; 42 mg orally once daily for 5 days): 4.9 (8.9) ms
placebo-corrected change from baseline QTcF (90% two-sided upper confidence interval) ([3]; supratherapeutic dose 126 mg orally once daily for 5 days): 15.8 (19.8) ms
treatment effect on PANSS total score vs. placebo ([4]; 28 mg (two-thirds of the recommended daily dose)): not statistically significant
reduction from baseline to Day 28 in PANSS total score compared to placebo ([4]; 42 mg): statistically significant reduction
PANSS Total, Placebo-subtracted Difference (95% CI) ([4]; 42 mg, Day 28, CI −7.8, −0.6): −4.2
PANSS Total, LS Mean Change from Baseline (SE) ([4]; 42 mg, Day 28, N 150, placebo −10.3 (1.3)): −14.5 (1.3)
frequency of reported events related to extrapyramidal symptoms (EPS) ([5]; 4- to 6-week placebo-controlled studies, placebo 6.3%): 6.7%
Creatine Phosphokinase Increased, adverse reaction incidence [5, 16]: 4%
Fatigue, adverse reaction incidence [5, 16]: 3%
Hepatic Enzymes Increased (ALT, AST, “hepatic enzymes” increased, or liver function tests abnormal), adverse reaction incidence [5, 16]: 2%
Dry Mouth, adverse reaction incidence [5, 17]: 6%
Vomiting, adverse reaction incidence [5, 17]: 3%
Dizziness (dizziness, dizziness postural), adverse reaction incidence ([5]; 4- to 6-week trials, 60 mg tosylate daily, N = 406, placebo 3%): 5%
Nausea, adverse reaction incidence ([5]; 4- to 6-week trials, 60 mg tosylate daily, N = 406, placebo 5%): 9%
Somnolence/Sedation, adverse reaction incidence ([5]; 4- to 6-week trials, 60 mg tosylate daily, N = 406): 24%
Somnolence/Sedation, adverse reaction incidence ([5]; 4- to 6-week trials, 60 mg tosylate daily, N = 406, listed as lumateperone tosylate): 24%
mean change from baseline, Barnes Akathisia Rating Scale (BARS) ([5]; 4- to 6-week trials, score range 0 to 14, placebo 0): −0.1
mean change from baseline, Abnormal Involuntary Movement Scale (AIMS) ([5]; 4- to 6-week trials, score range 0 to 28, placebo 0): 0.1
mean change from baseline, Simpson Angus Scale (SAS) ([5]; 4- to 6-week trials, score range 0 to 40, placebo 0): 0.1
frequency of orthostatic hypotension ([5]; clinical trials, placebo 0%): 0.7%
rate of syncope ([5]; clinical trials, placebo 0.2%): 0.2%
rate of any single adverse reaction leading to discontinuation ([5]; none occurred at >2%): ≤ 2%
mean changes from baseline and proportion of subjects with increase in weight ≥7% from baseline to end of study, versus placebo ([5]; pooled placebo-controlled trials): similar

CN1CCN2c3c(cccc31)[C@@H]1CN(CCCC(=O)c3ccc(F)cc3)CC[C@@H]12 [Lumateperone, 4-((6bR,10aS)-3-methyl-2,3,6b,9,10,10a-hexahydro-1H,7H-pyrido[3′,4′: 4,5]pyrrolo[1,2,3-de]quinoxalin-8-yl)-1-(4-fluoro-phenyl)-butan-1-one]
induction of CYP1A2 (CYP1A2 [6]): no induction
fraction unbound at 5 μM (Plasma protein binding): 0.026
inhibition of OATS [7]: little to no inhibition
exposure in patients with moderate and severe hepatic impairment ([8]; Child-Pugh class B and C): higher exposure
differences in pharmacokinetics based on age, sex, or race ([8]; in vivo): No clinically significant differences
inhibition, histaminergic receptors (histaminergic receptors): less than 50%
inhibition of OATP1B1 (OATP1B1): little to no inhibition
inhibition of CYP2D6 (CYP2D6): little to no inhibition
inhibition of OCT2 (OCT2): little to no inhibition
P-gp substrate (P-gp): did not appear to be
effect on pharmacokinetics of midazolam (CYP3A4 substrate) or its metabolite 1-hydroxymidazolam [9]: No clinically significant differences
inhibition of OATP1B3 (OATP1B3): little to no inhibition
BCRP substrate (BCRP): did not appear to be
enzymes involved in metabolism [10]: involved in the metabolism
inhibition of CYP1A2 (CYP1A2 [11]): little to no inhibition
induction of CYP3A4 (CYP3A4): no induction
Ki (dopamine D2 receptors): 32 nM
induction of CYP2B6 (CYP2B6): no induction
effect of concomitant CYP3A4 inducers on lumateperone exposure [12]: decreases the exposure
effect of concomitant moderate or strong CYP3A4 inhibitors on lumateperone exposure [12]: increases lumateperone exposure
inhibition, muscarinic receptors (muscarinic receptors): less than 50%
increase of mean AUC by food ([13]; high-fat meal): 9%
lowering of mean Cmax by food ([13]; high-fat meal): 33%
Vd ([13]; human, in vivo, iv): ~4.1 L/kg
clearance ([13]; human, in vivo, iv): ~465 mL/min
half-life ([13]; human, in vivo, iv): ~18 h
bioavailability ([13]; human, plasma, oral): ~4.4%
Tmax ([13]; human, plasma, oral, delay of median Tmax by food, high-fat meal): ~1 h
Tmax ([13]; human, plasma, oral, median Tmax, fasted state): 1 h
Tmax ([13]; human, plasma, oral, median Tmax, in the presence of food): 2 h
increase in steady-state exposure with dose ([13]; range of 21 mg to 56 mg): approximately dose-proportional
inhibition of CYP2C19 (CYP2C19): little to no inhibition
inhibition of OAT1 (OAT1): little to no inhibition
lumateperone share of total plasma radioactivity ([14]; after a single 14C-labeled oral dose): about 2.8%
dose excreted as unchanged lumateperone in the urine ([14]; human mass balance study): Less than 1%
metabolites identified in vivo ([14]; in vivo): more than twenty
inhibition of CYP2C9 (CYP2C9): little to no inhibition

O=C1CCc2ccc(OCCCCN3CCN(c4cccc(Cl)c4Cl)CC3)cc2N1 [aripiprazole]
incidence of stroke and transient ischemic attack, including fatal stroke, versus placebo [15]: higher incidence

Cc1cc2c(s1)Nc1ccccc1N=C2N1CCN(C)CC1 [olanzapine]
incidence of stroke and transient ischemic attack, including fatal stroke, versus placebo [15]: higher incidence

Cc1nc2n(c(=O)c1CCN1CCC(c3noc4cc(F)ccc34)CC1)CCCC2 [risperidone]
incidence of stroke and transient ischemic attack, including fatal stroke, versus placebo [15]: higher incidence

Source: patent US20210186962A1, “METHODS OF SCHIZOPHRENIA TREATMENT” (INTRA-CELLULAR THERAPIES, INC., priority 2019, published 2021)
